Experimental data from ChEMBL document CHEMBL5126668, “The Invention of WM382, a Highly Potent PMIX/X Dual Inhibitor toward the Treatment of Malaria” (ACS Med Chem Lett, 2022).
Converted amounts (≈) assume the structure as drawn. Blank lines part the entries; values can stand above or below the molecule they belong to.

Legend:
Plasmodium falciparum = experiment: Antimalarial activity against asexual blood stage Plasmodium falciparum infected in RBC measured after 72 hrs by LDH release assay; type: functional, organism-based; settings: Erythrocyte
[1] = molecular target: Plasmepsin X (Plasmodium falciparum (isolate 3D7)) (UniProt Q8IAS0); experiment: Inhibition of Plasmodium falciparum 3D7 HA-glms-tagged PMX at 10 nM using DABCYL-HSFIQEGKEE-EDANS as substrate measured after 2 hrs by FRET assay relative to control
[2] = molecular target: T1, Plasmepsin IX (Plasmodium falciparum) (UniProt Q8ILG2); experiment: Inhibition of Plasmodium falciparum 3D7 HA-glms-tagged PMIX at 10 nM using DABCYL-HSFIQEGKEE-EDANS as substrate measured after 2 hrs by FRET assay relative to control
T1 sequence (whole entry): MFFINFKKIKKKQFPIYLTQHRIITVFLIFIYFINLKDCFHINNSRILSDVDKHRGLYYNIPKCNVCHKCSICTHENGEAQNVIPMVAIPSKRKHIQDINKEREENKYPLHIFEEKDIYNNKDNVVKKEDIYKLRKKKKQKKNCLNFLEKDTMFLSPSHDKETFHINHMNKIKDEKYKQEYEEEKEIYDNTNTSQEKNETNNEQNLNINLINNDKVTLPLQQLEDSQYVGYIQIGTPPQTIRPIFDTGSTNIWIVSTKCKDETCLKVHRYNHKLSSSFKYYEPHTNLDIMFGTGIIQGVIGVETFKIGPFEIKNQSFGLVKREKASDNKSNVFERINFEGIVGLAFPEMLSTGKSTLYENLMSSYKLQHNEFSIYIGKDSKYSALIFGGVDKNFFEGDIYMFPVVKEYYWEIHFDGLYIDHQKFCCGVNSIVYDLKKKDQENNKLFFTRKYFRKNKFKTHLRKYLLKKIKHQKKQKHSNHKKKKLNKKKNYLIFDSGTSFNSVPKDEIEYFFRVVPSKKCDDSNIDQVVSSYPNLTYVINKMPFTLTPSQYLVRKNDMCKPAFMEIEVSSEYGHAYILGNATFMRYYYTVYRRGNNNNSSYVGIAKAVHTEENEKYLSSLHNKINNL

Plasmepsin IX = molecular target: T2, Plasmepsin IX (Plasmodium falciparum, UniProt Q8ILG2); experiment: Inhibition of Plasmodium falciparum 3D7 HA-glms-tagged PMIX using DABCYL-HSFIQEGKEE-EDANS as substrate measured after 2 hrs by FRET assay
T2 sequence (Q8ILG2 whole entry): T1 sequence (whole entry)

Plasmepsin X = Plasmepsin X (Plasmodium falciparum (isolate 3D7), UniProt Q8IAS0); experiment: Inhibition of Plasmodium falciparum 3D7 HA-glms-tagged PMX using DABCYL-HSFIQEGKEE-EDANS as substrate measured after 2 hrs by FRET assay
[3] = Volume of distribution in rat; type: ADME; settings: in vivo
[4] = Mean residence time in rat; type: ADME; settings: in vivo
[5] = Kinetic solubility of the compound; type: physicochemical; settings: read-out: Kinetic_solubility
[6] = Plasma clearance in rat; type: ADME
[7] = Oral bioavailability in rat; type: ADME, organism-based; settings: in vivo
[8] = Protein binding in rat plasma; type: ADME, cell-free; settings: read-out: PPB (converted)
[9] = Plasma clearance in mouse; type: ADME, organism-based
[10] = Unbound clearance in rat; type: ADME; settings: in vivo
[11] = Unbound plasma clearance in mouse; type: ADME, organism-based; settings: in vivo
[12] = Protein binding in mouse plasma; type: ADME, cell-free; settings: read-out: PPB (converted)
[13] = Apparent permeability across apical to basolateral side in MDCK cells; type: ADME, cell-based, Canis lupus familiaris; settings: dog
[14] = Volume of distribution in mouse; type: ADME, organism-based; settings: in vivo
[15] = Mean residence time in mouse; type: ADME, organism-based; settings: in vivo
[16] = Unbound volume of distribution in rat; type: ADME; settings: in vivo
[17] = Lipophilicity, log D of compound at pH 7.4; type: physicochemical; settings: buffer
[18] = Oral bioavailability in mouse; type: ADME, organism-based; settings: in vivo
[19] = Unbound volume of distribution in mouse; type: ADME, organism-based; settings: in vivo

Plasmepsin X, sequence (Q8IAS0 whole entry): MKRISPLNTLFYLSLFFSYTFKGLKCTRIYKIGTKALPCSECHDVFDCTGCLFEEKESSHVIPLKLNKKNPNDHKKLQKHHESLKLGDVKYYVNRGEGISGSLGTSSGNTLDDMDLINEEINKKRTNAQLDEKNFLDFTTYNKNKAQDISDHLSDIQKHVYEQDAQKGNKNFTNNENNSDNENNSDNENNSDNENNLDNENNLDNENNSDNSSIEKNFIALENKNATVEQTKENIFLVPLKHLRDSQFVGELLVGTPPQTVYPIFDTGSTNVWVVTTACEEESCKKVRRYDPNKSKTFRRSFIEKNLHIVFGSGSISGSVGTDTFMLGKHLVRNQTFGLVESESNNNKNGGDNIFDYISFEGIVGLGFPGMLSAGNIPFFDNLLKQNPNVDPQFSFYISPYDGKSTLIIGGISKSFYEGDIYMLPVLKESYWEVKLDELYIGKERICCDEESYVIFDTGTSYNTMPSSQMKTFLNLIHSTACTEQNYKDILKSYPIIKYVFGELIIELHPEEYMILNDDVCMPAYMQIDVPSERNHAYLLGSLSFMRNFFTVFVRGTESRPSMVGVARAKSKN
Plasmepsin X (Plasmodium falciparum (isolate 3D7)), sequence (Q8IAS0 whole entry): as above

EC50 (Plasmodium falciparum): 17 nM
SMILES: CC(C)CC(c1ccc(C(F)(F)F)c(C(=O)N2Cc3nccnc3C2)c1)N1C(=N)N[C@](CC2CC2)(c2ccccc2)CC1=O (stereo partly specified)

EC50 (Plasmodium falciparum): 66 nM
SMILES: CC(C)[C@]1(C)CC(=O)N(Cc2cccc(C(=O)NC3CCc4ccccc43)c2)C(=N)N1 (mixture of isomers)

EC50 (Plasmodium falciparum): 308 nM
SMILES: CC(C)[C@]1(C)CC(=O)N(Cc2cccc(C(=O)N[C@@H](C)c3ccccc3)c2)C(=N)N1

EC50 (Plasmodium falciparum): > 1000 nM
SMILES: CC(NC(=O)c1cccc(CN2C(=N)N[C@](C)(C(C)C)CC2=O)c1)c1ccccn1 (mixture of isomers)

EC50 (Plasmodium falciparum): 53 nM
SMILES: CC(C)[C@]1(C)CC(=O)N(Cc2cccc(C(=O)NC3COCc4ccccc43)c2)C(=N)N1 (mixture of isomers)

EC50 (Plasmodium falciparum): 0.4 nM
SMILES: CCC1(CC)CC(=O)N(Cc2cccc(C(=O)N[C@H]3CCOc4ccccc43)c2)C(=N)N1

inhibition [1]: 40%
inhibition [2]: 12%
EC50 (Plasmodium falciparum): 220 nM
SMILES: CCC1(CC)CC(=O)N([C@@H]2CCOc3ccc(C(=O)NC4CC(=O)Oc5ccccc54)cc32)C(=N)N1 (mixture of isomers)

EC50 (Plasmodium falciparum): 22 nM
SMILES: C[C@H](NC(=O)c1cc(F)cc(CN2C(=N)N[C@@](CC3CC3)(c3ccccc3)CC2=O)c1)c1ccccc1

EC50 (Plasmodium falciparum): 0.8 nM
SMILES: CCC[C@H](c1cccc(C(=O)N[C@@H](C)c2ccccc2)c1)N1C(=N)NC(CC)(CC)CC1=O

EC50 (Plasmodium falciparum): 1 nM
SMILES: CCC1(CC)CC(=O)N([C@H](c2ccccc2)c2cccc(C(=O)N[C@@H](C)c3ccccc3)c2)C(=N)N1

EC50 (Plasmodium falciparum): 210 nM
SMILES: CCC1(CC)CC(=O)N([C@H](CCO)c2cccc(C(=O)N[C@@H](C)c3ccccc3)c2)C(=N)N1

EC50 (Plasmodium falciparum): 830 nM
SMILES: CCC1(CC)CC(=O)N([C@@H](c2ccccc2)c2cccc(C(=O)N[C@@H](C)c3ccccc3)c2)C(=N)N1

EC50 (Plasmodium falciparum): 93 nM
SMILES: CCC1(CC)CC(=O)N(Cc2cc(F)cc(C(=O)N[C@@H](C)c3ccccc3)c2)C(=N)N1

EC50 (Plasmodium falciparum): 340 nM
SMILES: CC(C)[C@]1(C)CC(=O)N(Cc2cc(F)cc(C(=O)N[C@@H](C)c3ccccc3)c2)C(=N)N1

EC50 (Plasmodium falciparum): > 1000 nM
SMILES: C[C@H](NC(=O)c1cc(F)cc(CN2C(=N)N[C@]3(C)CCCC[C@]3(C)C2=O)c1)c1ccccc1

IC50 (Plasmepsin IX): 24 nM
IC50 (Plasmepsin X): 0.3 nM
EC50 (Plasmodium falciparum): 18 nM
SMILES: CCC1(CC)CC(=O)N([C@@H]2CCOc3ccc(C(=O)N[C@H]4CCS(=O)(=O)c5ccccc54)cc32)C(=N)N1

IC50 (Plasmepsin X): 1.9 nM
EC50 (Plasmodium falciparum): 4.6 nM
SMILES: CC(C)[C@]1(C)CC(=O)N([C@H](c2ccccc2)c2cccc(C(=O)N[C@@H](C)c3ccccc3)c2)C(=N)N1

EC50 (Plasmodium falciparum): 17 nM
SMILES: CCC1(CC)CC(=O)N(Cc2ccnc(C(=O)N[C@H]3CCOc4ccccc43)c2)C(=N)N1

EC50 (Plasmodium falciparum): > 1000 nM
SMILES: CCNC(=O)c1cccc(CN2C(=N)N[C@](C)(C(C)C)CC2=O)c1

IC50 (Plasmepsin IX): 68 nM
IC50 (Plasmepsin X): 0.6 nM
EC50 (Plasmodium falciparum): 2.8 nM
SMILES: CCC1(CC)CC(=O)N([C@@H]2CCOc3ccc(C(=O)N[C@H]4CCCOc5ccccc54)cc32)C(=N)N1

EC50 (Plasmodium falciparum): 250 nM
SMILES: C[C@H](NC(=O)c1cc(F)cc(CN2C(=N)NC3(CCCCC3)CC2=O)c1)c1ccccc1

IC50 (Plasmepsin IX): 12 nM
IC50 (Plasmepsin X): 0.4 nM
EC50 (Plasmodium falciparum): 1.4 nM
SMILES: CCC1(CC)CC(=O)N([C@@H]2CCOc3ccc(C(=O)N[C@@H]4c5ccccc5OC4(C)C)cc32)C(=N)N1

IC50 (Plasmepsin IX): 4.5 nM
Vd [3]: 6.7 L/kg
MRT [4]: 1.1 h
solubility kinetic [5]: 0.2 µM (≈ 0.0953 µg/mL)
clearance [6]: 103 mL/min/kg
bioavailability [7]: 6%
IC50 (Plasmepsin X): 0.06 nM
fraction unbound [8]: 0.02
clearance [9]: 36 mL/min/kg
CL free [10]: 5648 mL/min/kg
EC50 (Plasmodium falciparum): 0.4 nM
CL free [11]: 3148 mL/min/kg
fraction unbound [12]: 0.011
Papp A→B [13]: 16.3 ×10⁻⁶ cm/s
Vd [14]: 2.3 L/kg
MRT [15]: 1.1 h
Vdu [16]: 340 L/kg
logD [17]: 2.9
bioavailability [18]: 14%
Vdu [19]: 204 L/kg
SMILES: CCC[C@H](c1cccc(C(=O)N[C@H]2CCOc3ccccc32)c1)N1C(=N)NC(CC)(CC)CC1=O
